Test results taken from paper PMC8151276, “An Integrated Approach toward NanoBRET Tracers for Analysis of GPCR Ligand Engagement” (Molecules, 2021).

Columns and labels:
VIPR1 = molecular target: T1, VIPR1 (Homo sapiens, UniProt P32241); experiment: NanoBRET screen HiBiT-VIPR1 in HEK293; format: binding; details: VIPR1
T1 construct: purchased Promega (in-house HiBiT-GPCR construct library, NanoBRET)
T1 sequence (P32241 31-457): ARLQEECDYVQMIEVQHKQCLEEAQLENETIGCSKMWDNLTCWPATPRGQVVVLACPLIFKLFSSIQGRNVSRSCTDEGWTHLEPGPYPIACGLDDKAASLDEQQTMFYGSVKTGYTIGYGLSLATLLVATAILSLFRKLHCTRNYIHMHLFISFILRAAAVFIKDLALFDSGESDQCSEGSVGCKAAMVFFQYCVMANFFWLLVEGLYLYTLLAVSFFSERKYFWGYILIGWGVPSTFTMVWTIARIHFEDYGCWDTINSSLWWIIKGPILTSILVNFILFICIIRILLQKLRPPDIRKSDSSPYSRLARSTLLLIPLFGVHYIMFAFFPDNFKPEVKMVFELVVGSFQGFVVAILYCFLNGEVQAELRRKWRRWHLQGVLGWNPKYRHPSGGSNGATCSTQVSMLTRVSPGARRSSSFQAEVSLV
Protocol: (§1) Each tracer candidate was screened across the entire library of HiBiT-GPCR constructs using NanoBRET as the detection modality. As depicted in Figure 4A, the specificity of interactions was evaluated through decrease in BRET due to competitive displacement of a bound tracer by excess parental compound. Each tracer was analyzed for binding to each HiBiT-GPCR fusion in the absence and in the presence of competing parental compound. Briefly, HEK293 cells were transfected with HiBiT-GPCR constructs diluted into promoterless DNA to reduce expression and maximize translocation to the cell surface. Each tracer candidate was then screened at concentrations of 1 μM and 0.1 μM across cells expressing these fusions. Cells were treated for 1.5 h with tracer either alone or in the presence of 20 μM competing parental compound (i.e., control). BRET was measured upon addition of purified LgBiT and subsequent complementation with HiBiT genetically fused to a GPCR. The specificity of interactions was assessed through a decrease in BRET signal due to competitive displacement of the bound tracer. To further gauge the robustness of these interactions, the fold response over the control (i.e., BRETtracer/BRETcontrol) was calculated. We chose a 1.5-fold response, which translates to ≥7-fold signal over noise as the minimal threshold required to score an interaction as positive. […]. Below we highlight the screening results obtained for our exemplary fluorescent tracers based on Clozapine, Amitriptyline and AZD1283.
(§2) HiBiT-GPCR DNA constructs were diluted in 10 mM Tris pH 8 to a final concentration of 0.01 μg/μL, arrayed in 96-well plates and stored at −20 °C. For transfection, HEK293 cells were suspended in Opti-MEM (without phenol red) supplemented with 2% fetal bovine serum (Seradigm) and 100 units/mL penicillin–streptomycin (Gibco) at a final concentration of 220,000 cells/mL and dispensed into white 96-well plates at 90 μL/well. Subsequent transfections and screens were carried using an Agilent Bravo Automated Liquid Handling Platform. First, the 96-well HiBiT DNA arrays were diluted 25-fold in Opti-MEM (without serum or phenol red) to a final concentration of 0.0004 μg/μL and 20 μL of the diluted DNAs were transferred into new 96-well plates. Next, promoterless carrier DNA (1 μg/μL) was diluted 25-fold (0.04 μg/μL) and then dispensed into the diluted arrays at 20 μL/well. Following brief mixing, Viafect transfection reagent (Promega) diluted 16-fold into Opti-MEM was dispensed into the plates at 40 μL/well. After mixing by pipetting, plates were incubated for 10 min on the pipetting station deck. The DNA-transfection reagent complexes were then added to plates containing cells. To facilitate the screen, 10 μL of DNA-transfection reagent complexes were added in duplicates to the top 4 and bottom 4 rows, resulting in two identical 48-well arrays per plate. Plates with transfected cells were incubated for 18–20 h at 37 °C/5% CO2. A screen of each tracer across the entire library using two different concentrations requires duplicate plates of transfected cells. Depending on the number of tracers being screened, transfections can be scaled up using the same ratios. The next day, for each tracer, four 20× screening solutions in tracer dilution buffer (Promega) were prepared: two duplicates at final concentration of 20 μM and two duplicates at a final concentration of 2 μM. A competing unmodified compound was added to one of each duplicate at a final concentration of 400 μM. The four resulting solutions were diluted 4-fold in Opti-MEM without serum or phenol red to generate 5× solutions (5 µM and 0.5 µM tracer +/− 100 μM competing compound). To screen the library, a BioTek MultiFlo FX liquid dispenser was used to dispense 22.5 µL of tracer solution to the top 4 rows and 22.5 µL tracer + competing compound solution to the 4 bottom rows. Plates were briefly mixed on an orbital shaker and incubated for 1.5 h at room temperature. […]

FSHR = molecular target: T2, FSHR (Homo sapiens, UniProt P23945); experiment: NanoBRET screen HiBiT-FSHR in HEK293; format: binding; details: FSHR
T2 construct: purchased Promega (in-house HiBiT-GPCR construct library, NanoBRET)
T2 sequence (P23945 18-695): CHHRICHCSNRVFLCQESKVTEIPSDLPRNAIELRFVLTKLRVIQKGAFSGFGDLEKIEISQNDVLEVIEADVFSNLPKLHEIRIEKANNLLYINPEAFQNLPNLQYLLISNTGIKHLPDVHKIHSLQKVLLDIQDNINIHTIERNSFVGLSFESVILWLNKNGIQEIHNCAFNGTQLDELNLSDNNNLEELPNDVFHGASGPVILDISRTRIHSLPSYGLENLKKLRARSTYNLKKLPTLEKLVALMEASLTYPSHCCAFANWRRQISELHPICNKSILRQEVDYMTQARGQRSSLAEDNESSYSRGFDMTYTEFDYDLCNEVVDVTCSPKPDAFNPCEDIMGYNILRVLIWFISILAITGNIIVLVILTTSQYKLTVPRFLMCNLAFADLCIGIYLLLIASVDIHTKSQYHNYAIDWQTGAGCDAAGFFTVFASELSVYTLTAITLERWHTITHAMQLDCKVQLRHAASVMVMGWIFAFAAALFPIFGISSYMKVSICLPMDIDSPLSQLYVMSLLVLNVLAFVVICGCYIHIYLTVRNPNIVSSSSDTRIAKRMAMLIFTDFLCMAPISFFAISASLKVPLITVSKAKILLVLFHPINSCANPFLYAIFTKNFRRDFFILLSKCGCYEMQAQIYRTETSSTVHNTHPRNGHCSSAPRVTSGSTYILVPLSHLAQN
Protocol: as §1, §2

| SMILES | NanoBRET Fold Response (VIPR1; tracer 0.1μM) | NanoBRET Fold Response (VIPR1; tracer 1μM) | NanoBRET Fold Response (FSHR; tracer 0.1μM) | NanoBRET Fold Response (FSHR; tracer 1μM) |
| --- | --- | --- | --- | --- |
| O=C(CCc1ccc2n1[B-](F)(F)[N+]1=C(c3ccc[nH]3)C=CC1=C2)NCCOCCOCCNC(=O)OCCOCCN1CCN(C2=Nc3ccccc3Sc3ccccc32)CC1 [Quetiapine-a-2-NB590] | 1.03 | 0.92 | 0.89 | 1.07 |
| Cc1nc2n(c(=O)c1CCN1CCC(c3noc4cc(F)ccc34)CC1)CCCC2OC(=O)NCCOCCOCCOCCOCCNC(=O)CCc1ccc2n1[B-](F)(F)[N+]1=C(c3ccc[nH]3)C=CC1=C2 (centres unmarked) [Risperidone-2-NB590] | 0.98 | 1.10 | 0.95 | 1.23 |
| CC(C)N(CC[C@H](c1ccccc1)c1cc(CCNC(=O)CCOCCOCCOCCOCCNC(=O)CCc2ccc3n2[B-](F)(F)[N+]2=C(c4ccc[nH]4)C=CC2=C3)ccc1O)C(C)C [Tolterodine-2-NB590] | 0.99 | 0.78 | 0.78 | 1.08 |
| CC(C)N(CC[C@H](c1ccccc1)c1cc(CCNC(=O)c2ccc(CNC(=O)CCc3ccc4n3[B-](F)(F)[N+]3=C(c5ccc[nH]5)C=CC3=C4)cc2)ccc1O)C(C)C [Tolterodine-BZ-NB590] | 0.97 | 0.98 | 1.08 | 1.09 |
| CCCn1c(=O)c2[nH]c(-c3ccc(OCC(=O)NCCNC(=O)CCOCCNC(=O)c4ccc(CNC(=O)CCc5ccc6n5[B-](F)(F)[N+]5=C(c7ccc[nH]7)C=CC5=C6)cc4)cc3)nc2n(CCC)c1=O [XAC-3-NB590] | 1.03 | 0.99 | 1.18 | 1.04 |
